“And” between values parts separate entries of the source, which are not always exact repeats. Identical values can stand only once. Toxic doses and inconclusive results are not listed. Rule for the calls: active = survival T/C of 150% or more; inactive = T/C below 125% in these data.
Tested on: CD2F1 mice, L1210 leukemia ip, survival T/C
Assay: NCI In Vivo Anticancer Drug Screen. Data for tumor model L1210 Leukemia (intraperitoneal) in CD2F1 (CDF1) mice
Conditions: higher = longer survival
How it was run: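 In this screen, transplantable tumors were grown in mice given either the compound or its vehicle. Results were expressed as the treated measurement relative to the control measurement.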

[1] = endpoint: mean survival time, dose: 25.0 mg/kg/injection, schedule: Q04DX003 (ip), vehicle: saline with Tween-80
[2] = endpoint: mean survival time, dose: 50.0 mg/kg/injection, schedule: Q04DX003 (ip), vehicle: saline with Tween-80
[3] = endpoint: mean survival time, dose: 25.0 mg/kg/injection, schedule: Q01DX009 (ip), vehicle: saline with Tween-80
[4] = endpoint: mean survival time, dose: 100.0 mg/kg/injection, schedule: Q04DX003 (ip), vehicle: saline with Tween-80

Measured: T/C

Nc1nc(SCc2ccccc2[N+](=O)[O-])c2[nH]cnc2n1
inactive: endpoint: mean survival time, dose: 125.0 mg/kg/injection, schedule: Q01DX Z (ip), vehicle: carboxymethylcellulose (CMC) 102 % of control | endpoint: mean survival time, dose: 250.0 mg/kg/injection, schedule: Q01DX Z (ip), vehicle: carboxymethylcellulose (CMC) 104 % of control | endpoint: mean survival time, dose: 500.0 mg/kg/injection, schedule: Q01DX Z (ip), vehicle: carboxymethylcellulose (CMC) 116 % of control | endpoint: mean survival time, dose: 1000.0 mg/kg/injection, schedule: Q01DX Z (ip), vehicle: carboxymethylcellulose (CMC) 112 % of control

O=C1C=C(N2CCOCC2)C(=O)c2nccnc21
inactive: [1] 95 % of control | [2] 95 % of control

Nc1cc2c3c(cccc3c1)C(=O)N(CCN1CCCC1)C2=O
inactive: endpoint: mean survival time, dose: 3.12 mg/kg/injection, schedule: Q01DX009 (ip), vehicle: saline with Tween-80 96 % of control and 102 % of control | endpoint: mean survival time, dose: 6.25 mg/kg/injection, schedule: Q01DX009 (ip), vehicle: saline with Tween-80 101 % of control and 107 % of control | endpoint: mean survival time, dose: 12.5 mg/kg/injection, schedule: Q01DX009 (ip), vehicle: saline with Tween-80 117 % of control and 110 % of control | [3] 113 % of control and 119 % of control and 111 % of control | endpoint: mean survival time, dose: 100.0 mg/kg/injection, schedule: Q01DX009 (ip), vehicle: saline with Tween-80 86 % of control | endpoint: mean survival time, dose: 200.0 mg/kg/injection, schedule: Q01DX009 (ip), vehicle: saline with Tween-80 91 % of control
active: endpoint: mean survival time, dose: 50.0 mg/kg/injection, schedule: Q01DX009 (ip), vehicle: saline with Tween-80 175 % of control

CCC(C)OP(=S)(S)OC(C)CC.[Zn+2] (centres undefined)
inactive: endpoint: mean survival time, dose: 0.75 mg/kg/injection, schedule: Q01DX009 (ip), vehicle: saline with Tween-80 88 % of control and 90 % of control | endpoint: mean survival time, dose: 1.5 mg/kg/injection, schedule: Q01DX009 (ip), vehicle: saline with Tween-80 103 % of control | endpoint: mean survival time, dose: 3.0 mg/kg/injection, schedule: Q01DX009 (ip), vehicle: saline with Tween-80 88 % of control and 92 % of control | endpoint: mean survival time, dose: 3.13 mg/kg/injection, schedule: Q01DX009 (ip), vehicle: saline with Tween-80 86 % of control and 88 % of control | endpoint: mean survival time, dose: 6.25 mg/kg/injection, schedule: Q04DX003 (ip), vehicle: saline with Tween-80 93 % of control | endpoint: mean survival time, dose: 12.5 mg/kg/injection, schedule: Q01DX001 (ip), vehicle: saline with Tween-80 101 % of control | endpoint: mean survival time, dose: 12.5 mg/kg/injection, schedule: Q04DX003 (ip), vehicle: saline with Tween-80 95 % of control | endpoint: mean survival time, dose: 25.0 mg/kg/injection, schedule: Q01DX001 (ip), vehicle: saline with Tween-80 100 % of control | endpoint: mean survival time, dose: 25.0 mg/kg/injection, schedule: Q04DX002 (ip), vehicle: saline with Tween-80 94 % of control and 100 % of control | [1] 97 % of control | endpoint: mean survival time, dose: 50.0 mg/kg/injection, schedule: Q04DX002 (ip), vehicle: saline with Tween-80 120 % of control and 94 % of control

CSc1ncnc2c1nnn2C1OC(COC(=O)c2ccccc2)C(OC(=O)c2ccccc2)C1OC(=O)c1ccccc1 (centres undefined)
inactive: endpoint: median survival time, dose: 12.5 mg/kg/injection, schedule: Q01DX005 (ip), vehicle: Klucel (hydroxypropylcellulose) (HPC) 94 % of control | endpoint: median survival time, dose: 25.0 mg/kg/injection, schedule: Q01DX005 (ip), vehicle: Klucel (hydroxypropylcellulose) (HPC) 104 % of control | endpoint: median survival time, dose: 50.0 mg/kg/injection, schedule: Q01DX005 (ip), vehicle: Klucel (hydroxypropylcellulose) (HPC) 116 % of control and 123 % of control | endpoint: median survival time, dose: 100.0 mg/kg/injection, schedule: Q01DX005 (ip), vehicle: Klucel (hydroxypropylcellulose) (HPC) 116 % of control
active: endpoint: median survival time, dose: 400.0 mg/kg/injection, schedule: Q01DX005 (ip), vehicle: Klucel (hydroxypropylcellulose) (HPC) 164 % of control

O=C(O)C[N-]c1ccccc1.O=C(O)C[N-]c1ccccc1.[Ni+2]
inactive: [3] 95 % of control | [2] 107 % of control | [4] 106 % of control

CC1(C)OCC(C2OC(C)(C)OC2C2COC(C)(C)O2)O1 (centres undefined)
inactive: endpoint: mean survival time, dose: 100.0 mg/kg/injection, schedule: Q04DX002 (ip), vehicle: saline with Tween-80 100 % of control | endpoint: mean survival time, dose: 200.0 mg/kg/injection, schedule: Q04DX002 (ip), vehicle: saline with Tween-80 94 % of control | endpoint: mean survival time, dose: 400.0 mg/kg/injection, schedule: Q04DX002 (ip), vehicle: saline with Tween-80 101 % of control

O=C(O)c1ccc(C(=O)O)o1.[NH-]C1CCCCC1[NH-].[Pt+2]
inactive: endpoint: mean survival time, dose: 1.25 mg/kg/injection, schedule: Q04DX003 (ip), vehicle: dextrose 122 % of control and 102 % of control | endpoint: mean survival time, dose: 2.5 mg/kg/injection, schedule: Q04DX003 (ip), vehicle: dextrose 111 % of control and 112 % of control | endpoint: mean survival time, dose: 5.0 mg/kg/injection, schedule: Q04DX003 (ip), vehicle: dextrose 117 % of control | endpoint: mean survival time, dose: 40.0 mg/kg/injection, schedule: Q04DX003 (ip), vehicle: dextrose 94 % of control
active: endpoint: mean survival time, dose: 20.0 mg/kg/injection, schedule: Q04DX003 (ip), vehicle: dextrose 183 % of control

c1ccc2c(c1)ccc1c3ccccc3[nH]c21
inactive: endpoint: mean survival time, dose: 100.0 mg/kg/injection, schedule: Q01DX009 (ip), vehicle: other 94 % of control | endpoint: mean survival time, dose: 200.0 mg/kg/injection, schedule: Q01DX009 (ip), vehicle: other 97 % of control | endpoint: mean survival time, dose: 400.0 mg/kg/injection, schedule: Q01DX009 (ip), vehicle: other 96 % of control

O=C(O)c1[nH]c2c([N+](=O)[O-])cc([N+](=O)[O-])cc2c1C(=O)O
inactive: endpoint: mean survival time, dose: 75.0 mg/kg/injection, schedule: Q01DX001 (ip), vehicle: saline 103 % of control | endpoint: mean survival time, dose: 150.0 mg/kg/injection, schedule: Q01DX001 (ip), vehicle: saline 97 % of control

O=C1CN(CO)C(=O)N1CO
inactive: endpoint: median survival time, dose: 25.0 mg/kg/injection, schedule: Q01DX009 (ip), vehicle: Klucel (hydroxypropylcellulose) (HPC) 110 % of control | endpoint: median survival time, dose: 50.0 mg/kg/injection, schedule: Q01DX009 (ip), vehicle: Klucel (hydroxypropylcellulose) (HPC) 110 % of control | endpoint: median survival time, dose: 100.0 mg/kg/injection, schedule: Q01DX009 (ip), vehicle: Klucel (hydroxypropylcellulose) (HPC) 116 % of control | endpoint: median survival time, dose: 200.0 mg/kg/injection, schedule: Q01DX009 (ip), vehicle: Klucel (hydroxypropylcellulose) (HPC) 112 % of control | endpoint: median survival time, dose: 400.0 mg/kg/injection, schedule: Q01DX009 (ip), vehicle: Klucel (hydroxypropylcellulose) (HPC) 96 % of control

CCOC(=O)NCCBr
inactive: endpoint: mean survival time, dose: 37.5 mg/kg/injection, schedule: Q01DX007 (ip), vehicle: saline 88 % of control | endpoint: mean survival time, dose: 75.0 mg/kg/injection, schedule: Q01DX007 (ip), vehicle: saline 97 % of control | endpoint: mean survival time, dose: 150.0 mg/kg/injection, schedule: Q01DX007 (ip), vehicle: saline 92 % of control

CC(=O)OC/C=C(C)/C=C/C=C(C)/C=C/C1=C(C)CCCC1(C)C
inactive: endpoint: mean survival time, dose: 200.0 mg/kg/injection, schedule: Q01DX001 (ip), vehicle: steriod suspending solution 96 % of control | endpoint: mean survival time, dose: 200.0 mg/kg/injection, schedule: Q01DX009 (ip), vehicle: steriod suspending solution 96 % of control | endpoint: mean survival time, dose: 400.0 mg/kg/injection, schedule: Q01DX001 (ip), vehicle: steriod suspending solution 102 % of control | endpoint: mean survival time, dose: 400.0 mg/kg/injection, schedule: Q01DX009 (ip), vehicle: steriod suspending solution 93 % of control | endpoint: mean survival time, dose: 800.0 mg/kg/injection, schedule: Q01DX001 (ip), vehicle: steriod suspending solution 92 % of control | endpoint: mean survival time, dose: 800.0 mg/kg/injection, schedule: Q01DX009 (ip), vehicle: steriod suspending solution 86 % of control | endpoint: mean survival time, dose: 1600.0 mg/kg/injection, schedule: Q01DX001 (ip), vehicle: steriod suspending solution 92 % of control

N=Cc1c(O)n(-c2ccccc2)c(=O)n(-c2ccccc2)c1=O
inactive: [4] 94 % of control | endpoint: mean survival time, dose: 200.0 mg/kg/injection, schedule: Q04DX003 (ip), vehicle: saline with Tween-80 94 % of control | endpoint: mean survival time, dose: 400.0 mg/kg/injection, schedule: Q04DX003 (ip), vehicle: saline with Tween-80 92 % of control

CS(=O)(=O)C(Br)(Br)S(C)(=O)=O
inactive: endpoint: mean survival time, dose: 4.7 mg/kg/injection, schedule: Q01DX001 (ip), vehicle: saline with Tween-80 103 % of control | endpoint: mean survival time, dose: 9.4 mg/kg/injection, schedule: Q01DX001 (ip), vehicle: saline with Tween-80 100 % of control

CCCCCCCCCc1ccc(OCCOCCOCCOCCOCCOCCOCCOCCOCCOC(C)N2CCCC2=O)cc1 (centres undefined)
inactive: [3] 96 % of control | [2] 108 % of control | [4] 93 % of control

O=C1CCCC[CH]1[Hg][Cl] (centres undefined)
inactive: endpoint: mean survival time, dose: 1.25 mg/kg/injection, schedule: Q01DX009 (ip), vehicle: saline 95 % of control | endpoint: mean survival time, dose: 2.5 mg/kg/injection, schedule: Q01DX009 (ip), vehicle: saline 107 % of control

Cc1cc(O)c2c(c1O)C(=O)c1cccc(O)c1C2=O
inactive: endpoint: mean survival time, dose: 0.75 mg/kg/injection, schedule: Q01DX009 (ip), vehicle: Klucel (hydroxypropylcellulose) (HPC) 103 % of control | endpoint: mean survival time, dose: 1.5 mg/kg/injection, schedule: Q01DX009 (ip), vehicle: Klucel (hydroxypropylcellulose) (HPC) 98 % of control | endpoint: mean survival time, dose: 3.0 mg/kg/injection, schedule: Q01DX009 (ip), vehicle: Klucel (hydroxypropylcellulose) (HPC) 101 % of control | endpoint: mean survival time, dose: 6.0 mg/kg/injection, schedule: Q01DX009 (ip), vehicle: Klucel (hydroxypropylcellulose) (HPC) 113 % of control

From PubChem BioAssay AID256 (DTP/NCI, 2004)
